Laboratory results as given in US20130035281A1, “PHARMACEUTICAL COMPOSITION, METHODS FOR TREATING AND USES THEREOF” (BOEHRINGER INGELHEIM INTERNATIONAL GMBH, priority 2011, published 2013).

Assays:
[1] = tested on: Zucker diabetic fatty (ZDF) rats; experiment: Oral glucose tolerance test in ZDF rats; format: in vivo; settings: overnight fasted 12-weeks old male ZDF rats; single dose; Cpd. A 3 mg/kg oral, exendin-4 0.01 mg/kg subcutaneous; oral glucose 2 g/kg; blood glucose up to 120 min
Experimental: An oral glucose tolerance test was performed in overnight fasted 12-weeks old male Zucker diabetic fatty (ZDF) rats (ZDF/CRL-Lepr^fa). A pre-dose blood sample was obtained by tail bleed. Blood glucose was measured with a glucometer, and the animals were randomized for blood glucose (n=5/group). Subsequently, the groups received a single oral administration of either vehicle alone (0.5% aqueous hydroxyethylcellulose) or this vehicle containing the glucopyranosyl-substituted benzene derivative. […] The animals were orally dosed with glucose (2 g/kg) 30 min after the subcutaneous injection. Blood glucose was measured in tail blood 15 min, 30 min, 60 min, 90 min, and 120 min thereafter. Glucose excursion was quantified by calculating the reactive glucose AUC. The data are presented as mean±S.E.M. The two-sided unpaired Student's t-test was used for statistical comparison of the groups. A p value<0.05 was considered to show a statistically significant difference.

[2] = metformin on its own, in the diabetic; cited from earlier work

SMILES	reduction of glucose excursion (reactive glucose AUC) [1]	average improvement in the HbA1c value [2]
OC[C@H]1O[C@@H](c2ccc(Cl)c(Cc3ccc(O[C@H]4CCOC4)cc3)c2)[C@H](O)[C@@H](O)[C@@H]1O [Cpd. A]	57%	
CN(C)C(=N)N=C(N)N [metformin]		1.0-1.5%
